{
  "source": "paper PMC12035805",
  "about": "“A Water-Soluble Aggregation-Induced Emission Photosensitizer with Intrinsic Antibacterial Activity as an Antiplanktonic and Antibiofilm Therapeutic Agent” (Journal of Medicinal Chemistry, 2025)",
  "key": {"S. aureus DNA gyrase": {"biological_target": "T1, S. aureus DNA gyrase (Staphylococcus aureus, UniProt P0A0K8+P20831)", "T1 construct": "purchased Inspiralis", "T1 sequence (P20831 whole entry)": "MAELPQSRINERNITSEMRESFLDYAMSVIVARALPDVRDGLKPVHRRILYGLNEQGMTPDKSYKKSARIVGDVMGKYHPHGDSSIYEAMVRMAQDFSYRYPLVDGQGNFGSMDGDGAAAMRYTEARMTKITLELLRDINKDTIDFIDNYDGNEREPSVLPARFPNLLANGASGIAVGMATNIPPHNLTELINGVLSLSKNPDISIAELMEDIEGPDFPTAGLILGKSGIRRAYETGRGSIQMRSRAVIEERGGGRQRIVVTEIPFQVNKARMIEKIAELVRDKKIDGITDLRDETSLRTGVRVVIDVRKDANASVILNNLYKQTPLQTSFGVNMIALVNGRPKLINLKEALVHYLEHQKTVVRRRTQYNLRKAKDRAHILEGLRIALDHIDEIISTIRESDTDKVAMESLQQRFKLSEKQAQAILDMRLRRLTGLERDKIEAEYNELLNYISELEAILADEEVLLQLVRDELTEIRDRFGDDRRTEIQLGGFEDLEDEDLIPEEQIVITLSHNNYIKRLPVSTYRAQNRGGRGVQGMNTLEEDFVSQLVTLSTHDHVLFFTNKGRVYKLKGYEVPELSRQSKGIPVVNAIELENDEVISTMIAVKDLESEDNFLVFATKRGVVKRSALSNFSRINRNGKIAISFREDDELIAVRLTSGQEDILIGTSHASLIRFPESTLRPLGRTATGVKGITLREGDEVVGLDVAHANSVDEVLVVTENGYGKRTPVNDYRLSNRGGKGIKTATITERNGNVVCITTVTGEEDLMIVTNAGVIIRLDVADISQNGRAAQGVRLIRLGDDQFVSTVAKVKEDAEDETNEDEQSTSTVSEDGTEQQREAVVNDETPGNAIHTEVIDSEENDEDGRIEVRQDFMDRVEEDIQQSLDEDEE", "T1 sequence (P0A0K8 whole entry)": "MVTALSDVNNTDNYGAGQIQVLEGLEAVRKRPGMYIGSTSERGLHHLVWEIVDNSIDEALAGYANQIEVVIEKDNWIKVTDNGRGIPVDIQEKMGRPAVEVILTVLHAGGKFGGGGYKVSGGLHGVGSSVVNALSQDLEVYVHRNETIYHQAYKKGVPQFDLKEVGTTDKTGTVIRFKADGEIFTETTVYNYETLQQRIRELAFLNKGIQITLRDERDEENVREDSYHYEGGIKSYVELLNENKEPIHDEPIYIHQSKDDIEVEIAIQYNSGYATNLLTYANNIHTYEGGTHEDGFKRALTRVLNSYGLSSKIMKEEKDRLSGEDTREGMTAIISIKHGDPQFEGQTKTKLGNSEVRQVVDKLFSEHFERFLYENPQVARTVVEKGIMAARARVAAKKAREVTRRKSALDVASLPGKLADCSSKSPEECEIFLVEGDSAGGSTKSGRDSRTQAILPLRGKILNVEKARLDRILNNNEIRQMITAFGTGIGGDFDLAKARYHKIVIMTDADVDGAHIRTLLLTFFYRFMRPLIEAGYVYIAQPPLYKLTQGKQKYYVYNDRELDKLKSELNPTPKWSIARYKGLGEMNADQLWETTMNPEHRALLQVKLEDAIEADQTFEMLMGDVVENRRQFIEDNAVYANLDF", "assay": "S. aureus DNA gyrase supercoiling inhibition assay", "assay_type": "biochemical", "conditions": "relaxed pBR322, 37 °C, 30 min, agarose gel", "description": "The assay was conducted using an S. aureus gyrase supercoiling assay kit from Inspiralis. In general, relaxed bacterial plasmid (pBR322), S. aureus gyrase, and different concentrations of TPA-1 were mixed and incubated at 37 °C for 30 min. The mixtures were then quenched and subjected to electrophoresis (1% agarose gel, 75 V, 2 h). The gel image was captured with the Bio-Rad ChemiDoc imaging system."}, "P. aeruginosa biofilm": {"system": "P. aeruginosa biofilm", "assay": "Photodynamic eradication of biofilm bacteria", "assay_type": "cell-based, Pseudomonas aeruginosa", "conditions": "light irradiation at 600 nm for 45 min", "description": "For biofilm bacteria, overnight culture of S. aureus or P. aeruginosa was diluted to 1 × 10^5 CFU/mL in TSB (with 1% glucose). Portion of 100 μL of the diluted bacteria culture was added to the wells of a 96-well plate. The plate was incubated under darkness for 24 h at 37 °C. Then, the planktonic bacterial suspensions were removed from the wells. The biofilms were washed with PBS (3 times) to remove any remaining planktonic bacteria. Different concentrations of TPA-1 were dissolved in PBS. TPA-1 solution was added to the biofilms (120 μL for S.aureus, 150 μL for P.aeruginosa). After 20 min of incubation under darkness at 30 °C, the biofilms were kept in the dark or irradiated by 600 nm light (60 mW/cm^2) for 15, 30, and 45 min. After that, the TPA-1 solution was replaced by 120 μL of PBS. The biofilm was then suspended in PBS by scratching, followed by sonication (5 min, ≤42 kHz) and vortex (5 min, 950 rpm). The number of viable bacteria was determined by the plate counting method. All experiments were carried out in triplicate."}, "planktonic S. aureus": {"system": "planktonic S. aureus", "assay": "Photodynamic eradication of planktonic bacteria", "assay_type": "cell-based, Staphylococcus aureus", "conditions": "2 μM, 600 nm (60 mW/cm^2)", "description": "For planktonic bacteria, an overnight culture of S. aureus or P. aeruginosa was diluted 100 times in TSB and grown to OD = 1. The bacteria cultures were then diluted to […] in PBS. TPA-1 (2 μM) was added to the diluted cultures and incubated under darkness for 20 min at 30 °C. Bacterial cultures of 200 μL were transferred to the wells of a 96-well plate. The plate was irradiated by 600 nm light (60 mW/cm^2) for 30 and 45 min. Then, the bacterial cultures were serially diluted, and the number of viable bacteria was counted using the plate counting method."}, "[1]": {"assay": "Log P, 1-octanol/water partition", "assay_type": "physicochemical", "conditions": "1-octanol/water (1:1)", "description": "The log P values of TPA compounds were obtained according to previously reported methods.[66] 1-octanol was first presaturated with water. Equal volume and concentration of TPA-NC-1, TPA-0, and TPA-1 were added to a 1-octanol/water (1:1) mixture and vortexed for 1 min. The mixture was then centrifuged for 5 min at 13,500 rpm. After that, the absorptions of the compound in the 1-octanol and water phases were measured. The concentrations of the compound in both phases were calculated by using the absorption calibration curve of the corresponding compound. Log P = log (concentration of the compound in 1-octanol/concentration of the compound in water)."}, "[2]": {"system": "P. aeruginosa (ATCC 27853)", "assay": "Wound infection mouse model, P. aeruginosa biofilm", "assay_type": "in vivo", "conditions": "mice, topical 90 μM, 600 nm 15 min, every 24 h for 4 days (TPA-1 + L)", "description": "All in vivo experiments were approved by the Department of Science and Technology of Zhejiang Province (SYXK(Zhejiang)2021-0043). Female BALB/c mice (10–12 weeks old) were kept in 12 h light and 12 h dark cycle with access to free food and water for 7 days before and throughout the experiment. The backs of the mice were shaved and disinfected with iodine. A full-thickness circular wound (7 mm in diameter) was then created at the back of the mice. The mice were allowed to recover for 24 h after surgery to prevent sepsis.[65] Ten μL of 1× 10^8 CFU/mL MRSA (ATCC 43300) or P. aeruginosa (ATCC 27853) in saline was added to the wound. The wound was covered with an adhesive dressing for 24 h of infection. Next, the mice were randomly divided into four groups: (1) 50 μL TPA-1 (90 μM) with 600 nm light irradiation (60 mW/cm^2) for 15 min, (2) 50 μL TPA-1 (90 μM) in dark, (3) 50 μL saline with 600 nm light irradiation (60 mW/cm^2) for 15 min, and (4) 50 μL saline in dark. For light irradiation groups, TPA-1 and saline were incubated on the wound for 10 min before irradiation. The treatment was sustained for 4 days. The wound size and body weight of the mice were recorded every day. On day 6, the mice were euthanatized, and the wound tissue was collected. […] The other half of the tissue was homogenized, and the number of viable bacteria was measured by the plate counting method."}, "S. aureus (ATCC 29213)": {"system": "S. aureus (ATCC 29213)", "assay": "MIC assay (broth microdilution, CLSI), without light", "assay_type": "cell-based", "conditions": "Staphylococcus aureus, ATCC29213, light or radiation study; read-out: MIC against ATCC 29213 Staphylococcus aureus without light irradiation", "description": "(§1) The MIC assays of TPA-1 were conducted according to the broth microdilution methods described in the Clinical and Laboratory Standards Institute (CLSI) standard. A single colony of S. aureus (ATCC 29213), methicillin-resistant S. aureus (BAA 41), or P. aeruginosa (ATCC 27853) on an LB agar plate was picked and suspended in Mueller–Hinton Broth (MHB). The bacterial culture was grown overnight at 37 °C. The next day, the bacteria culture was diluted 100 times in fresh MHB and grown to the mid log phase. Bacteria in the mid log phase were further diluted to 5 × 10^6 CFU/mL in cation-adjusted MHB (S. aureus) or MHB (P. aeruginosa). Ten μL of the diluted bacteria were added to a 96-well plate containing 90 μL of serial diluted TPA-1 in the corresponding medium. The plate was incubated overnight at 37 °C. The MICs of the TPA compounds were the concentrations at which no apparent bacteria were observed by the naked eye. Different concentrations of LTA were also added to examine the change in MIC values of TPA-1 against S. aureus. The experiments were conducted in triplicate."}, "[3]": {"system": "methicillin-resistant S. aureus (BAA 41)", "assay": "MIC assay (broth microdilution, CLSI), without light", "assay_type": "cell-based", "conditions": "Staphylococcus aureus", "description": "as §1"}},
  "note": "Read-outs that look alike come from different tables or passages of the source.",
  "data": [
    {"molecule": "C#CCC[n+]1c(/C=C/c2ccc(-c3ccc(N(c4ccc(OCCC[N+](C)(C)C)cc4)c4ccc(OCCC[N+](C)(C)C)cc4)cc3)s2)sc2ccccc21.[Br-].[Br-].[Br-]", "note": "[TPA-1]", "values": [
      {"measurement": "concentration at which the supercoiled DNA band completely disappears", "setting": "S. aureus DNA gyrase", "value": 25, "unit": "µM"},
      {"measurement": "P. aeruginosa biofilm log CFU/mL reduction", "setting": "P. aeruginosa biofilm", "value": "2.6 ± 0.2", "unit": "log CFU/mL"},
      {"measurement": "P. aeruginosa in the biofilm eradicated", "setting": "P. aeruginosa biofilm", "value": "99.8% ± 0.1%"},
      {"measurement": "planktonic S. aureus eradicated", "setting": "planktonic S. aureus; 30 min", "value": "99.2% ± 0.7%"},
      {"measurement": "planktonic S. aureus log CFU/mL reduction", "setting": "planktonic S. aureus; 30 min", "value": "2.2 ± 0.4", "unit": "log CFU/mL"},
      {"measurement": "planktonic S. aureus eradicated", "setting": "planktonic S. aureus; 45 min", "value": "> 99.99", "unit": "%"},
      {"measurement": "planktonic S. aureus log CFU/mL reduction", "setting": "planktonic S. aureus; 45 min", "value": "> 5", "unit": "log CFU/mL"},
      {"measurement": "logP", "setting": "[1]", "value": -1.6},
      {"measurement": "P. aeruginosa eradicated in infected tissues", "setting": "[2]", "value": "96% ± 4%"},
      {"measurement": "P. aeruginosa log (CFU/mg tissue) reduction", "setting": "[2]", "value": "1.4 ± 0.4 log (CFU/mg tissue)"},
      {"measurement": "MIC", "setting": "S. aureus (ATCC 29213)", "value": 3.12, "unit": "µM"},
      {"measurement": "MIC", "setting": "[3]; ATCC BAA-41 / BAA-41, light or radiation study, read-out: MIC against ATCC BAA41 Methicillin-resistant Staphylococcus aureus without light irradiation", "value": 3.12, "unit": "µM"},
      {"measurement": "MIC", "setting": "[3]; BAA41, light or radiation study, read-out: MIC against methicillin-resistant S. aureus (BAA 41)", "value": 3.12, "unit": "µM"}
    ]}
  ]
}
